According to PMC9948211 (ACS Omega, 2023):

Biological target: T1, PPAR-γ (Homo sapiens, UniProt P37231)
T1 sequence (P37231 1-505): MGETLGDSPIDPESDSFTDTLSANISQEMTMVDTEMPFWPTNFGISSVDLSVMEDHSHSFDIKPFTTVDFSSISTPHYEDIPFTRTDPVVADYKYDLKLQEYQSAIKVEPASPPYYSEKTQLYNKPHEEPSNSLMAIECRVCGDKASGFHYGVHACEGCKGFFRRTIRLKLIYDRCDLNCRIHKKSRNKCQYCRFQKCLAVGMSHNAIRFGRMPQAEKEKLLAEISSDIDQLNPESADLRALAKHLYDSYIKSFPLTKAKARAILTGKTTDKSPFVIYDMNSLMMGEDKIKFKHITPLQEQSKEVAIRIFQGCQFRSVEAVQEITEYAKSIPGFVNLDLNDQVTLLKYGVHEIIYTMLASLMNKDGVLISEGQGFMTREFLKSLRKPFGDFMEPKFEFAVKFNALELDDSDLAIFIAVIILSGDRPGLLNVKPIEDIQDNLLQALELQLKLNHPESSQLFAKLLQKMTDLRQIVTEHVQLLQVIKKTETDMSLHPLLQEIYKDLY
Assay: LanthaScreen TR-FRET competitive binding assay

Row | IC50 [µM] | SMILES
1 | 2.25 | COc1cc(CC/C(C)=N\O)ccc1OCC(=O)Nc1ccc(F)cc1 [G1, (Z)-N-(4-Fluorophenyl)-2-(4-(3-(hydroxyimino)butyl)-2-methoxyphenoxy)acetamide]
2 | 4.51 | COc1cc(CC/C(C)=N\O)ccc1OCC(=O)Nc1nccs1 [G2, (Z)-2-(4-(3-(Hydroxyimino)butyl)-2-methoxyphenoxy)-N-(thiazol-2-yl)acetamide]
